# Patent publication US10364256B2 (GlaxoSmithKline Intellectual Property Development Limited, priority 2015, dated 2019)
# pEC50, pIC50: −log10 of the molar value. Where two headings read alike, the source gives them in different places.
# Experiments:
# [1] = system: NQO1 specific enzyme activity in BEAS-2B cells (marker for NRF2 activation); assay: BEAS-2B NQO1 MTT Assay; assay type: cell-based; details: Homo sapiens, compound incubated 48 hours, read-out: EC50 (NQO1 specific enzyme activity induction)
# Summary of the method: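 BEAS-2B cells treated with compound for 48 h at 37 °C, then lysed; NQO1 activity in lysates measured kinetically by MTT reduction at A570 over 30 min. pEC50 from 3-parameter fit of ΔOD/min versus log concentration; lysate also taken for Cell Titer Glo.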
# [2] = target: T1, full length Keap1 protein / full length NRF2 protein (Homo sapiens, UniProt Q14145); assay: NRF2-Keap1 TR-FRET Assay; assay type: binding; details: 25 nM Keap1-FlagHis and 50 nM biotin-NRF2 added
# T1 construct: full length NRF2 protein and full length Keap1 protein (Keap1 exists a dimer) are used; His
# Summary of the method: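 Full-length Keap1-FlagHis preincubated with compound 2.25 h at 37 °C, then biotin-NRF2 added for 1.25 h at 4 °C, in Tris pH 8.0 with MgCl2, NaCl, BSA, DTT, CHAPS. TR-FRET 665/615 nm ratio normalised to with- and without-protein 1% DMSO controls; pIC50 from four-parameter fit.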
# T1 sequence (Q14145 whole entry): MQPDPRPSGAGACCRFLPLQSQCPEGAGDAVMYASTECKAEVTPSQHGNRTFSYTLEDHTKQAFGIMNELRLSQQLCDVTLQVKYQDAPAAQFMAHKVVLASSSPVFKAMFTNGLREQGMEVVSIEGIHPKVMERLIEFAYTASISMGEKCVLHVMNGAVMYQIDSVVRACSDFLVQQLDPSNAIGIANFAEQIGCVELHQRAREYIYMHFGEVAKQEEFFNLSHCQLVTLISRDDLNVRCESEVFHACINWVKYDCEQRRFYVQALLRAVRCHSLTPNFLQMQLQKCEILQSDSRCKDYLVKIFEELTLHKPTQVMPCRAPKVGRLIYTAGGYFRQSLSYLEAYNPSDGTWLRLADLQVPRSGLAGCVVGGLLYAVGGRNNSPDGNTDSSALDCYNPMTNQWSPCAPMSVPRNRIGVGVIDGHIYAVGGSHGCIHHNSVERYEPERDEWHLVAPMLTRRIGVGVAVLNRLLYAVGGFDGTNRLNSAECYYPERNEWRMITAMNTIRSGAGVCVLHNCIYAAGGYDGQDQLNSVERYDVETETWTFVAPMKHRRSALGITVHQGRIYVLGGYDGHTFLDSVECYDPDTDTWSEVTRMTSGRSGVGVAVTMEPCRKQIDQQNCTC
Compound,pEC50 [1],pIC50 [2],"pEC50 ([1]; BEAS-2B, 48 h)"
"Cn1cc(C2CC2c2c(C(=O)O)cnn2-c2cccc(-c3cccc(SCC4CCCCC4)c3)c2)nn1 (stereo not shown) [Example 179, 1-(3′-((Cyclohexylmethyl)thio)-[1,1′-biphenyl]-3-yl)-5-(2-(1-methyl-1H-1,2,3-triazol-4-yl)cyclopropyl)-1H-pyrazole-4-carboxylic acid]",8.00 to 9.00,6.00 to 7.00,–
"COC(c1cccc(-c2cccc(-n3ncc(C(=O)O)c3C3CC3c3cn(C)nn3)c2)c1)C1CCCC1 (stereo not shown) [Example 183, 1-(3′-(Cyclopentyl(methoxy)methyl)-[1,1′-biphenyl]-3-yl)-5-(2-(1-methyl-1H-1,2,3-triazol-4-yl)cyclopropyl)-1H-pyrazole-4-carboxylic acid]",6.00 to 7.00,6.00 to 7.00,–
"Cc1nn(-c2cccc(-c3cccc(OCC4CCCCC4)c3)c2)c(C2CC2c2cn(C)nn2)c1C(=O)O (stereo not shown) [Example 188, 1-(3′-(cyclohexylmethoxy)-[1,1′-biphenyl]-3-yl)-3-methyl-5-(2-(1-methyl-1H-1,2,3-triazol-4-yl)cyclopropyl)-1H-pyrazole-4-carboxylic Acid]",6.00 to 7.00,5.00 to 6.00,–
"CCC[C@@H]1CCCCN1C(=O)c1cccc(-c2cccc(-n3ncc(C(=O)O)c3C3CC3c3cn(C)nn3)n2)c1 (stereo partly drawn) [Example 196, 5-(2-(1-Methyl-1H-1,2,3-triazol-4-yl)cyclopropyl)-1-(6-(3-((R)-2-propylpiperidine-1-carbonyl)phenyl)pyridin-2-yl)-1H-pyrazole-4-carboxylic Acid]",–,7.00 to 8.00,6.00 to 7.00
"CCC[C@@H]1CCCCN1C(=O)c1cncc(-c2cccc(-n3ncc(C(=O)O)c3C3CC3c3cn(C)nn3)c2)c1 (stereo partly drawn) [Example 197, 5-(2-(1-Methyl-1H-1,2,3-triazol-4-yl)cyclopropyl)-1-(3-(5-((R)-2-propylpiperidine-1-carbonyl)pyridin-3-yl)phenyl)-1H-pyrazole-4-carboxylic acid]",–,7.00 to 8.00,5.00 to 6.00
"CCC[C@@H]1CCCCN1C(=O)c1cccc(-c2cccc(-n3nc(C)c(C(=O)O)c3C3CC3c3cn(C)nn3)c2)c1 (stereo partly drawn) [Example 202, 3-Methyl-5-(2-(1-methyl-1H-1,2,3-triazol-4-yl)cyclopropyl)-1-(3′-((R)-2-propylpiperidine-1-carbonyl)-[1,1′-biphenyl]-3-yl)-1H-pyrazole-4-carboxylic acid]",–,7.00 to 8.00,6.00 to 7.00
"CC1(C)CCc2cnn(-c3cccc(-c4cccc(-n5ncc(C(=O)O)c5C(F)(F)F)n4)c3)c21 [Example 204, 1-(6-(3-(6,6-Dimethyl-5,6-dihydrocyclopenta[c]pyrazol-1(4H)-yl)phenyl)pyridin-2-yl)-5-(trifluoromethyl)-1H-pyrazole-4-carboxylic Acid]",6.00 to 7.00,5.00 to 6.00,–
"CCCC1(C)CCc2cnn(-c3cccc(-c4cccc(-n5ncc(C(=O)O)c5C5CC5)c4)c3)c21 (stereo not shown) [Example 205, 5-Cyclopropyl-1-(3′-(6-methyl-6-propyl-5,6-dihydrocyclopenta[c]pyrazol-1(4H)-yl)-[1,1′-biphenyl]-3-yl)-1H-pyrazole-4-carboxylic Acid]",6.00 to 7.00,6.00 to 7.00,–
"CCCCC1CCc2cnn(-c3cccc(-c4cccc(-n5ncc(C(=O)O)c5C5CC5)c4)c3)c21 (stereo not shown) [Example 206, 1-(3′-(6-Butyl-5,6-dihydrocyclopenta[c]pyrazol-1(4H)-yl)-[1,1′-biphenyl]-3-yl)-5-cyclopropyl-1H-pyrazole-4-carboxylic Acid]",6.00 to 7.00,5.00 to 6.00,–
"CCc1nc(-c2cccc(-c3cccc(-n4ncc(C(=O)O)c4C4CC4)c3)c2)no1 [Example 209, 5-Cyclopropyl-1-(3′-(5-ethyl-1,2,4-oxadiazol-3-yl)-[1,1′-biphenyl]-3-yl)-1H-pyrazole-4-carboxylic Acid]",5.00 to 6.00,4.00 to 5.00,–
"Cc1nnc(-c2cccc(-c3cccc(-n4ncc(C(=O)O)c4C4CC4)c3)c2)o1 [Example 210, 5S-Cyclopropyl-1-(3′-(5-methyl-1,3,4-oxadiazol-2-yl)-[1,1′-biphenyl]-3-yl)-1H-pyrazole-4-carboxylic acid]",6.00 to 7.00,< 4.00,–
"Cn1cc(C2CC2c2c(C(=O)O)cnn2-c2cccc(-c3cccc(-n4ncc5c4C(C)(C)CC5)c3)c2)nn1 (stereo not shown) [Example 212, 1-(3′-(6,6-Dimethyl-5,6-dihydrocyclopenta[c]pyrazol-1(4H)-yl)-[1,1′-biphenyl]-3-yl)-5-(2-(1-methyl-1H-1,2,3-triazol-4-yl)cyclopropyl)-1H-pyrazole-4-carboxylic Acid]",6.00 to 7.00,7.00 to 8.00,–
"CCC[C@@H]1CCCCN1C(=O)c1cccc(-c2cccc(-n3ncc(C(=O)O)c3C3CC3c3cnn(C)c3)c2)c1 (stereo partly drawn) [Example 213, 5-(2-(1-Methyl-1H-pyrazol-4-yl)cyclopropyl)-1-(3′-((R)-2-propylpiperidine-1-carbonyl)-[1,1′-biphenyl]-3-yl)-1H-pyrazole-4-carboxylic Acid]",–,7.00 to 8.00,6.00 to 7.00
"CCC[C@@H]1CCCCN1C(=O)c1cccc(-c2cccc(-n3ncc(C(=O)O)c3C3CC3c3cnn(C)c3)c2)c1F (stereo partly drawn) [Example 214, 1-(2′-Fluoro-3′-((R)-2-propylpiperidine-1-carbonyl)-[1,1′-biphenyl]-3-yl)-5-(2-(1-methyl-1H-pyrazol-4-yl)cyclopropyl)-1H-pyrazole-4-carboxylic Acid]",–,7.00 to 8.00,6.00 to 7.00
"Cn1cc(C2CC2c2c(C(=O)O)cnn2-c2cccc(-c3cccc(C(=O)CC4CCCCC4)c3)c2)nn1 (stereo not shown) [Example 215, 1-(3′-(2-Cyclohexylacetyl)-[1,1′-biphenyl]-3-yl)-5-(2-(1-methyl-1H-1,2,3-triazol-4-yl)cyclopropyl)-1H-pyrazole-4-carboxylic Acid]",6.00 to 7.00,6.00 to 7.00,–
"COC(CC1CCCCC1)c1cccc(-c2cccc(-n3ncc(C(=O)O)c3C3CC3c3cn(C)nn3)c2)c1 (stereo not shown) [Example 216, 1-(3′-(2-Cyclohexyl-1-methoxyethyl)-[1,1′-biphenyl]-3-yl)-5-(2-(1-methyl-1H-1,2,3-triazol-4-yl)cyclopropyl)-1H-pyrazole-4-carboxylic Acid]",7.00 to 8.00,6.00 to 7.00,–
"Cn1cc(C2CC2c2c(C(=O)O)cnn2-c2cccc(-c3cccc(C(O)CC4CCCCC4)c3)c2)nn1 (stereo not shown) [Example 217, 1-(3′-(2-Cyclohexyl-1-hydroxyethyl)-[1,1′-biphenyl]-3-yl)-5-(2-(1-methyl-1H-1,2,3-triazol-4-yl)cyclopropyl)-1H-pyrazole-4-carboxylic acid]",6.00 to 7.00,6.00 to 7.00,–
"CC(CC1CCCCC1)Oc1cccc(-c2cccc(-n3ncc(C(=O)O)c3C3CC3c3cn(C)nn3)c2)c1 (stereo not shown) [Example 218, 1-(3′-((1-Cyclohexylpropan-2-yl)oxy)-[1,1′-biphenyl]-3-yl)-5-(2-(1-methyl-1H-1,2,3-triazol-4-yl)cyclopropyl)-1H-pyrazole-4-carboxylic Acid]",7.00 to 8.00,6.00 to 7.00,–
"CC(Oc1cccc(-c2cccc(-n3ncc(C(=O)O)c3C3CC3c3cn(C)nn3)c2)c1)C1CCCCC1 (stereo not shown) [Example 219, 1-(3′-(1-Cyclohexylethoxy)-[1,1′-biphenyl]-3-yl)-5-(2-(1-methyl-1H-1,2,3-triazol-4-yl)cyclopropyl)-1H-pyrazole-4-carboxylic acid]",–,6.00 to 7.00,7.00 to 8.00
Cn1cc(C2CC2c2c(C(=O)O)cnn2-c2cccc(-c3cccc(OCc4ccccc4)c3)c2)nn1 (stereo not shown) [Example 221],6.00 to 7.00,6.00 to 7.00,–
"Cn1cc(C2CC2c2c(C(=O)O)cnn2-c2cccc(-c3cccc(OCc4ccccc4F)c3)c2)nn1 (stereo not shown) [Example 222, 1-(3′-((2-Fluorobenzyl)oxy)-[1,1′-biphenyl]-3-yl)-5-(2-(1-methyl-1H-1,2,3-triazol-4-yl)cyclopropyl)-1H-pyrazole-4-carboxylic acid]",6.00 to 7.00,6.00 to 7.00,–
"Cn1cc(C2CC2c2c(C(=O)O)cnn2-c2cccc(-c3cccc(OCc4ccc(F)cc4)c3)c2)nn1 (stereo not shown) [Example 223, 1-(3′-((4-Fluorobenzyl)oxy)-[1,1′-biphenyl]-3-yl)-5-(2-(1-methyl-1H-1,2,3-triazol-4-yl)cyclopropyl)-1H-pyrazole-4-carboxylic acid]",6.00 to 7.00,5.00 to 6.00,–
"Cn1cc(C2CC2c2c(C(=O)O)cnn2-c2cccc(-c3cccc(OCc4cccc(F)c4)c3)c2)nn1 (stereo not shown) [Example 224, 1-(3′-((3-Fluorobenzyl)oxy)-[1,1′-biphenyl]-3-yl)-5-(2-(1-methyl-1H-1,2,3-triazol-4-yl)cyclopropyl)-1H-pyrazole-4-carboxylic acid]",6.00 to 7.00,6.00 to 7.00,–
"Cn1cc(C2CC2c2c(C(=O)O)cnn2-c2cccc(-c3cccc(OCCC(C)(C)C)c3)c2)nn1 (stereo not shown) [Example 225, 1-(3′-(3,3-Dimethylbutoxy)-[1,1′-biphenyl]-3-yl)-5-(2-(1-methyl-1H-1,2,3-triazol-4-yl)cyclopropyl)-1H-pyrazole-4-carboxylic acid]",7.00 to 8.00,6.00 to 7.00,–
"CC(Oc1cccc(-c2cccc(-n3ncc(C(=O)O)c3C3CC3c3cn(C)nn3)c2)c1)C1CCOCC1 (stereo not shown) [Example 227, 5-(2-(1-Methyl-1H-1,2,3-triazol-4-yl)cyclopropyl)-1-(3′-(1-(tetrahydro-2H-pyran-4-yl)ethoxy)-[1,1′-biphenyl]-3-yl)-1H-pyrazole-4-carboxylic Acid]",6.00 to 7.00,7.00 to 8.00,–
"CC(Oc1cccc(-c2cccc(-n3ncc(C(=O)O)c3C3CC3c3cn(C)nn3)c2)c1)C1CCCC1 (stereo not shown) [Example 228, 1-(3′-(1-Cyclopentylethoxy)-[1,1′-biphenyl]-3-yl)-5-(2-(1-methyl-1H-1,2,3-triazol-4-yl)cyclopropyl)-1H-pyrazole-4-carboxylic acid]",8.00 to 9.00,6.00 to 7.00,–
